Test results from US20120022107A1, “2-(PIPERIDIN-1-YL)-4-AZOLYL-THIAZOLE-5-CARBOXYLIC ACID DERIVATIVES AGAINST BACTERIAL INFECTIONS” (ASTRAZENECA AB, priority 2008, published 2012).
Converted amounts (≈) assume the structure as drawn.

Tests used:
Spn = Spn MIC; type: cell-based, Streptococcus pneumoniae; conditions: Streptococcus pneumoniae; read-out: Spn_MIC
M. tuberculosis = assay: MIC testing: Microplate Alamar Blue Assay; type: cell-based, Mycobacterium tuberculosis; conditions: Mycobacterium tuberculosis, lowest concentration preventing color change from blue to pink, read-out: Mtu MIC
Msmeg = Msmeg (Mycolicibacterium smegmatis, UniProt A0QNE0); assay: Msmeg IC50; type: biochemical
Sequence of Msmeg (A0QNE0 whole entry): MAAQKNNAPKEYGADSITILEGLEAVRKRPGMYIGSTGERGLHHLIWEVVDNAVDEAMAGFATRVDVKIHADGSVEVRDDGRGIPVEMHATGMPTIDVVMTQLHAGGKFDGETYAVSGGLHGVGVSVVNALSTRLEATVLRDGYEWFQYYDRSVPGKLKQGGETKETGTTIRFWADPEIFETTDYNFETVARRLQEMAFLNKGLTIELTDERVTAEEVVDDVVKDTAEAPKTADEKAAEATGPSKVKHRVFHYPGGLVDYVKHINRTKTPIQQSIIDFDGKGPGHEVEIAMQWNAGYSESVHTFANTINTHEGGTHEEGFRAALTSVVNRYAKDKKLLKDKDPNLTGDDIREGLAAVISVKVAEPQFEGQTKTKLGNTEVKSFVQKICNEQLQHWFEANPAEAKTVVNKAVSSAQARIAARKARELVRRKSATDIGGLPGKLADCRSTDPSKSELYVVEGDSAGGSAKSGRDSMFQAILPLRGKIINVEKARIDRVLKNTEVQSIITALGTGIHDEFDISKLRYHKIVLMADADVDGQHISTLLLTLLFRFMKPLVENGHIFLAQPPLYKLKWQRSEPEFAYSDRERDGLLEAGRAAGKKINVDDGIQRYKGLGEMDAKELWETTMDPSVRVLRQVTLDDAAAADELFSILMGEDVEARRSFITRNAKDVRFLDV

Sau = Sau MIC; type: cell-based, Staphylococcus aureus; conditions: Staphylococcus aureus; read-out: Sau_MIC
Hinf = Hinf MIC; type: cell-based, Haemophilus influenzae; conditions: Haemophilus influenzae; read-out: Hinf_MIC

SMILES	MIC (Spn) [µg/mL]	MIC (M. tuberculosis) [µg/mL]	IC50 (Msmeg) [nM]	MIC (Sau) [µg/mL]	MIC (Hinf) [µg/mL]
CCn1ncnc1-c1nc(N2CC[C@@H](NC(=O)c3[nH]c(C)c(Cl)c3Br)[C@@H](OC)C2)sc1C(=O)O [Example 13, 2-((3S,4R)-4-(3-bromo-4-chloro-5-methyl-1H-pyrrole-2-carboxamido)-3-methoxypiperidin-1-yl)-4-(1-ethyl-1H-1,2,4-triazol-5-yl) thiazole-5-carboxylic acid]	0.125 (≈ 0.218 µM)	0.015 (≈ 0.0262 µM)	< 2.5	0.125 (≈ 0.218 µM)	0.125 (≈ 0.218 µM)
CCn1ncnc1-c1nc(N2CC[C@@H](NC(=O)c3[nH]c(C)c(Br)c3Cl)[C@@H](OC)C2)sc1C(=O)O [Example 14, 2-((3S,4R)-4-(4-bromo-3-chloro-5-methyl-1H-pyrrole-2-carboxamido)-3-methoxypiperidin-1-yl)-4-(1-ethyl-1H-1,2,4-triazol-5-yl) thiazole-5-carboxylic acid]	0.125 (≈ 0.218 µM)	0.03 (≈ 0.0524 µM)	< 2.5	0.125 (≈ 0.218 µM)	0.125 (≈ 0.218 µM)
CCn1ncnc1-c1nc(N2CC[C@@H](NC(=O)c3[nH]c(Cl)c(C)c3Cl)[C@@H](OC)C2)sc1C(=O)O [Example 15, 2-{(3S,4R)-4-[(3,5-Dichloro-4-methyl-1H-pyrrole-2-carbonyl)-amino]-3-methoxy-piperidin-1-yl}-4-(2-ethyl-2H-[1,2,4]triazol-3-yl)-thiazole-5-carboxylic acid]	0.25 (≈ 0.473 µM)	0.5 (≈ 0.946 µM)	45	0.25 (≈ 0.473 µM)	1 (≈ 1.89 µM)
CO[C@H]1CN(c2nc(-c3ncnn3CC3CC3)c(C(=O)O)s2)CC[C@H]1NC(=O)c1[nH]c(C)c(Cl)c1Br [Example 16, 2-((3S,4R)-4-(3-bromo-4-chloro-5-methyl-1H-pyrrole-2-carboxamido)-3-methoxypiperidin-1-yl)-4-(1-(cyclopropylmethyl)-1H-1,2,4-triazole-5-yl) thiazole-5-carboxylic acid]	0.25 (≈ 0.417 µM)	0.03 (≈ 0.0501 µM)	< 2.5	8 (≈ 13.4 µM)	0.25 (≈ 0.417 µM)
CO[C@H]1CN(c2nc(-c3ncnn3CC3CC3)c(C(=O)O)s2)CC[C@H]1NC(=O)c1[nH]c(C)c(Br)c1Cl [Example 18, 2-((3S,4R)-4-(4-bromo-3-chloro-5-methyl-1H-pyrrole-2-carboxamido)-3-methoxypiperidin-1-yl)-4-(1-(cyclopropylmethyl)-1H-1,2,4-triazol-5-yl) thiazole-5-carboxylic acid]	0.25 (≈ 0.417 µM)	0.06 (≈ 0.1 µM)	4	0.125 (≈ 0.209 µM)	0.5 (≈ 0.835 µM)
COCCn1ncnc1-c1nc(N2CC[C@@H](NC(=O)c3[nH]c(C)c(Cl)c3Br)[C@@H](OC)C2)sc1C(=O)O [Example 19, 2-((3S,4R)-4-(3-bromo-4-chloro-5-methyl-1H-pyrrole-2-carboxamido)-3-methoxypiperidin-1-yl)-4-(1-(2-methoxyethyl)-1H-1,2,4-triazol-5-yl) thiazole-5-carboxylic acid]	0.125 (≈ 0.207 µM)	0.03 (≈ 0.0498 µM)	< 2.5	0.125 (≈ 0.207 µM)	0.25 (≈ 0.415 µM)
COCCn1ncnc1-c1nc(N2CC[C@@H](NC(=O)c3[nH]c(C)c(Cl)c3Br)[C@@H](F)C2)sc1C(=O)O [Example 20, 2-((3S,4R)-4-(3-bromo-4-chloro-5-methyl-1H-pyrrole-2-carboxamido)-3-fluoropiperidin-1-yl)-4-(1-(2-methoxyethyl)-1H-1,2,4-triazol-5-yl) thiazole-5-carboxylic acid]	0.125 (≈ 0.212 µM)	0.125 (≈ 0.212 µM)	4	0.125 (≈ 0.212 µM)	0.125 (≈ 0.212 µM)
